# Test results published in PubChem BioAssay (NCI).
#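 48-hour exposure; five concentrations; linearly interpolated endpoints. TGI: concentration producing complete growth inhibition.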
# Columns and labels:
# Assay in all cases: NCI anticancer screen, dose series, 48 h
# K-562 leukemia = test system: K-562 leukemia
# SNB-75 CNS = test system: SNB-75 CNS
# LOX IMVI melanoma = test system: LOX IMVI melanoma
# HCT-116 colon = test system: HCT-116 colon
# RXF 393 renal = test system: RXF 393 renal
# NCI-H522 lung = test system: NCI-H522 lung
# SW-620 colon = test system: SW-620 colon
# SNB-19 CNS = test system: SNB-19 CNS
# KM12 colon = test system: KM12 colon
# TK-10 renal = test system: TK-10 renal
# HT29 colon = test system: HT29 colon
# NCI/ADR-RES ovarian = test system: NCI/ADR-RES ovarian
# SF-268 CNS = test system: SF-268 CNS
# BT-549 breast = test system: BT-549 breast
# CCRF-CEM leukemia = test system: CCRF-CEM leukemia
# IGROV1 ovarian = test system: IGROV1 ovarian
# NCI-H23 lung = test system: NCI-H23 lung
# SN12C renal = test system: SN12C renal
# PC-3 prostate = test system: PC-3 prostate
# SK-MEL-5 melanoma = test system: SK-MEL-5 melanoma
# HCT-15 colon = test system: HCT-15 colon
# NCI-H460 lung = test system: NCI-H460 lung
# MDA-N = test system: MDA-N
# HS 578T breast = test system: HS 578T breast
# DU-145 prostate = test system: DU-145 prostate
# OVCAR-4 ovarian = test system: OVCAR-4 ovarian
# MCF7 breast = test system: MCF7 breast
# HCC-2998 colon = test system: HCC-2998 colon
# OVCAR-3 ovarian = test system: OVCAR-3 ovarian
# MDA-MB-231 breast = test system: MDA-MB-231 breast
# HL-60(TB) leukemia = test system: HL-60(TB) leukemia
# SR leukemia = test system: SR leukemia
# OVCAR-5 ovarian = test system: OVCAR-5 ovarian
# M14 melanoma = test system: M14 melanoma
# HOP-92 NSCLC = test system: HOP-92 NSCLC
# A549 NSCLC = test system: A549 NSCLC
# UACC-62 melanoma = test system: UACC-62 melanoma
# MDA-MB-435 = test system: MDA-MB-435
# SF-295 CNS = test system: SF-295 CNS
# ACHN renal = test system: ACHN renal
# T-47D breast = test system: T-47D breast
# UACC-257 melanoma = test system: UACC-257 melanoma
# SK-OV-3 ovarian = test system: SK-OV-3 ovarian
# EKVX NSCLC = test system: EKVX NSCLC
# SK-MEL-28 melanoma = test system: SK-MEL-28 melanoma
# RPMI-8226 leukemia = test system: RPMI-8226 leukemia
# U251 CNS = test system: U251 CNS
# MOLT-4 leukemia = test system: MOLT-4 leukemia
# MALME-3M melanoma = test system: MALME-3M melanoma
# A498 renal = test system: A498 renal
# NCI-H226 lung = test system: NCI-H226 lung
# CAKI-1 renal = test system: CAKI-1 renal
# COLO 205 colon = test system: COLO 205 colon
# 786-0 renal = test system: 786-0 renal
# SK-MEL-2 melanoma = test system: SK-MEL-2 melanoma
# SF-539 CNS = test system: SF-539 CNS
# UO-31 renal = test system: UO-31 renal
# OVCAR-8 ovarian = test system: OVCAR-8 ovarian
# HOP-62 NSCLC = test system: HOP-62 NSCLC
smiles,measurement,setting,value
Nc1nc(N)c(-c2cccc(C(F)(F)F)c2)c(Cc2cccc(C(F)(F)F)c2)n1,TGI,K-562 leukemia,17.7 µM
same,TGI,SNB-75 CNS,29 µM
same,TGI,LOX IMVI melanoma,17.9 µM
same,TGI,HCT-116 colon,12.2 µM
same,TGI,RXF 393 renal,22.5 µM
same,TGI,NCI-H522 lung,15.4 µM
same,TGI,SW-620 colon,26.7 µM
same,TGI,SNB-19 CNS,19.2 µM
same,TGI,KM12 colon,21.7 µM
same,TGI,TK-10 renal,20.9 µM
same,TGI,HT29 colon,10.9 µM
same,TGI,NCI/ADR-RES ovarian,23.1 µM
same,TGI,SF-268 CNS,20 µM
same,TGI,BT-549 breast,22.4 µM
same,TGI,CCRF-CEM leukemia,44.3 µM
same,TGI,IGROV1 ovarian,19.3 µM
same,TGI,NCI-H23 lung,13 µM
same,TGI,SN12C renal,15.3 µM
same,TGI,PC-3 prostate,24.1 µM
same,TGI,SK-MEL-5 melanoma,17.6 µM
same,TGI,HCT-15 colon,16.5 µM
same,TGI,NCI-H460 lung,13.5 µM
same,TGI,MDA-N,17.9 µM
same,TGI,HS 578T breast,35 µM
same,TGI,DU-145 prostate,21.5 µM
same,TGI,OVCAR-4 ovarian,31 µM
same,TGI,MCF7 breast,18.5 µM
same,TGI,HCC-2998 colon,11.3 µM
same,TGI,OVCAR-3 ovarian,22.1 µM
same,TGI,MDA-MB-231 breast,26.2 µM
same,TGI,HL-60(TB) leukemia,17.7 µM
same,TGI,SR leukemia,17.5 µM
same,TGI,OVCAR-5 ovarian,18.8 µM
same,TGI,M14 melanoma,17.4 µM
same,TGI,HOP-92 NSCLC,25.8 µM
same,TGI,A549 NSCLC,13.3 µM
same,TGI,UACC-62 melanoma,14.8 µM
same,TGI,MDA-MB-435,22.5 µM
same,TGI,SF-295 CNS,22.7 µM
same,TGI,ACHN renal,13.5 µM
same,TGI,T-47D breast,32.4 µM
same,TGI,UACC-257 melanoma,20.2 µM
same,TGI,SK-OV-3 ovarian,28.1 µM
same,TGI,EKVX NSCLC,21.1 µM
same,TGI,SK-MEL-28 melanoma,24.8 µM
same,TGI,RPMI-8226 leukemia,21.6 µM
same,TGI,U251 CNS,29.6 µM
same,TGI,MOLT-4 leukemia,17.7 µM
same,TGI,MALME-3M melanoma,25.7 µM
same,TGI,A498 renal,15.9 µM
same,TGI,NCI-H226 lung,30.1 µM
same,TGI,CAKI-1 renal,21.9 µM
same,TGI,COLO 205 colon,19.6 µM
same,TGI,786-0 renal,15.3 µM
same,TGI,SK-MEL-2 melanoma,20.7 µM
same,TGI,SF-539 CNS,16.6 µM
same,TGI,UO-31 renal,19.4 µM
same,TGI,OVCAR-8 ovarian,24.6 µM
same,TGI,HOP-62 NSCLC,30.1 µM
O=c1ssc2c1Nc1c(ssc1=O)S2,TGI,K-562 leukemia,25.2 µM
same,TGI,SNB-75 CNS,30.2 µM
same,TGI,LOX IMVI melanoma,24.3 µM
same,TGI,HCT-116 colon,31.2 µM
same,TGI,RXF 393 renal,17.4 µM
same,TGI,NCI-H522 lung,37.4 µM
same,TGI,SW-620 colon,31.1 µM
same,TGI,SNB-19 CNS,34.7 µM
same,TGI,KM12 colon,28.6 µM
same,TGI,TK-10 renal,29.5 µM
same,TGI,HT29 colon,73.8 µM
same,TGI,NCI/ADR-RES ovarian,37.4 µM
same,TGI,SF-268 CNS,33.5 µM
same,TGI,BT-549 breast,52.5 µM
same,TGI,CCRF-CEM leukemia,6.8 µM
same,TGI,IGROV1 ovarian,26.4 µM
same,TGI,NCI-H23 lung,35.3 µM
same,TGI,SN12C renal,28.1 µM
same,TGI,PC-3 prostate,25.5 µM
same,TGI,SK-MEL-5 melanoma,29.4 µM
same,TGI,HCT-15 colon,41.3 µM
same,TGI,NCI-H460 lung,36.4 µM
same,TGI,MDA-N,31.9 µM
same,TGI,HS 578T breast,> 100 µM
same,TGI,DU-145 prostate,26.2 µM
same,TGI,OVCAR-4 ovarian,28.2 µM
same,TGI,MCF7 breast,39.2 µM
same,TGI,HCC-2998 colon,29.4 µM
same,TGI,OVCAR-3 ovarian,32.4 µM
same,TGI,MDA-MB-231 breast,57.3 µM
same,TGI,HL-60(TB) leukemia,15.5 µM
same,TGI,SR leukemia,5.49 µM
same,TGI,OVCAR-5 ovarian,32.4 µM
same,TGI,M14 melanoma,27.2 µM
same,TGI,HOP-92 NSCLC,28.7 µM
same,TGI,A549 NSCLC,41 µM
same,TGI,UACC-62 melanoma,27.3 µM
same,TGI,MDA-MB-435,33.5 µM
same,TGI,SF-295 CNS,74.7 µM
same,TGI,ACHN renal,30.2 µM
same,TGI,T-47D breast,26.2 µM
same,TGI,UACC-257 melanoma,28.3 µM
same,TGI,SK-OV-3 ovarian,36.3 µM
same,TGI,EKVX NSCLC,30 µM
same,TGI,SK-MEL-28 melanoma,34.2 µM
same,TGI,RPMI-8226 leukemia,21.1 µM
same,TGI,U251 CNS,33.3 µM
same,TGI,MOLT-4 leukemia,28.4 µM
same,TGI,MALME-3M melanoma,22.4 µM
same,TGI,A498 renal,24.7 µM
same,TGI,NCI-H226 lung,46.5 µM
same,TGI,CAKI-1 renal,33.3 µM
same,TGI,COLO 205 colon,36.4 µM
same,TGI,786-0 renal,14.5 µM
same,TGI,SK-MEL-2 melanoma,32.1 µM
same,TGI,SF-539 CNS,21.5 µM
same,TGI,UO-31 renal,24.4 µM
same,TGI,OVCAR-8 ovarian,28.6 µM
same,TGI,HOP-62 NSCLC,36.4 µM
OCCN(CCO)CCn1cnc2c(NCc3ccccc3)ncnc21,TGI,K-562 leukemia,> 100 µM
same,TGI,SNB-75 CNS,> 100 µM
same,TGI,LOX IMVI melanoma,> 100 µM
same,TGI,HCT-116 colon,> 100 µM
same,TGI,RXF 393 renal,> 100 µM
same,TGI,NCI-H522 lung,> 100 µM
same,TGI,SW-620 colon,> 100 µM
same,TGI,SNB-19 CNS,> 100 µM
same,TGI,KM12 colon,> 100 µM
same,TGI,TK-10 renal,> 100 µM
same,TGI,HT29 colon,> 100 µM
same,TGI,NCI/ADR-RES ovarian,> 100 µM
same,TGI,SF-268 CNS,> 100 µM
same,TGI,BT-549 breast,> 100 µM
same,TGI,CCRF-CEM leukemia,> 100 µM
same,TGI,IGROV1 ovarian,> 100 µM
same,TGI,NCI-H23 lung,> 100 µM
same,TGI,SN12C renal,> 100 µM
same,TGI,PC-3 prostate,> 100 µM
same,TGI,SK-MEL-5 melanoma,> 100 µM
same,TGI,HCT-15 colon,> 100 µM
same,TGI,NCI-H460 lung,> 100 µM
same,TGI,MDA-N,> 100 µM
same,TGI,HS 578T breast,> 100 µM
same,TGI,DU-145 prostate,> 100 µM
same,TGI,OVCAR-4 ovarian,> 100 µM
same,TGI,MCF7 breast,> 100 µM
same,TGI,HCC-2998 colon,> 100 µM
same,TGI,OVCAR-3 ovarian,> 100 µM
same,TGI,MDA-MB-231 breast,> 100 µM
same,TGI,HL-60(TB) leukemia,> 100 µM
same,TGI,SR leukemia,> 100 µM
same,TGI,OVCAR-5 ovarian,> 100 µM
same,TGI,M14 melanoma,> 100 µM
same,TGI,HOP-92 NSCLC,> 100 µM
same,TGI,A549 NSCLC,> 100 µM
same,TGI,UACC-62 melanoma,> 100 µM
same,TGI,MDA-MB-435,> 100 µM
same,TGI,SF-295 CNS,> 100 µM
same,TGI,ACHN renal,> 100 µM
same,TGI,T-47D breast,> 100 µM
same,TGI,UACC-257 melanoma,> 100 µM
same,TGI,SK-OV-3 ovarian,> 100 µM
same,TGI,EKVX NSCLC,> 100 µM
same,TGI,SK-MEL-28 melanoma,> 100 µM
same,TGI,RPMI-8226 leukemia,> 100 µM
same,TGI,U251 CNS,> 100 µM
same,TGI,MOLT-4 leukemia,> 100 µM
same,TGI,MALME-3M melanoma,> 100 µM
same,TGI,A498 renal,> 100 µM
same,TGI,NCI-H226 lung,> 100 µM
same,TGI,CAKI-1 renal,> 100 µM
same,TGI,COLO 205 colon,> 100 µM
same,TGI,786-0 renal,> 100 µM
same,TGI,SK-MEL-2 melanoma,> 100 µM
same,TGI,SF-539 CNS,> 100 µM
same,TGI,UO-31 renal,> 100 µM
same,TGI,OVCAR-8 ovarian,> 100 µM
same,TGI,HOP-62 NSCLC,> 100 µM
